Data on four substances can be found in patent US20120034608A1, “MICRORNA AS A BIOMARKER OF PANCREATIC ISLET BETA-CELL ENGAGEMENT” (Merck Sharp & Dohme Corp., priority 2009, published 2012).

Common to all, as to assay type: cell-based, rat
Data set [1] concerns INS-1 832/3 cells. In words: TAQMAN real-time quantitative RT-PCR of miRNA expression in INS-1 832/3 cells. The conditions noted are these: for increase of the corresponding miRNA transcripts after transfection of precursor: overexpression experiments, TAQMAN real-time quantitative RT-PCR. Here is the method: INS-1 832/3 and 832/13 cells were maintained in RPMI 1640 with 10% FBS and 11 mM glucose. For GLP-1 treatment, GLP-1 (7-37) amide (ABCHEM) was added in the media in the presence of 16 mM glucose for 24 hours. Total RNA was extracted with TRIZOL as in Example 1. Rat islet isolation and treatment was as follows. Pancreatic islets of Langerhans were isolated from the pancreas of normal Sprague-Dawley rats (Charles River, Ind.) by collagenase digestion and discontinuous Ficoll gradient separation (15). Islets were cultured for 2 hours in RPMI 1640 medium with 11 mM glucose for recovery from the isolation process. Then 100-200 islets were treated with 50 nM GLP-1 in the media with 11 mM glucose for 24 hours. RNA was extracted with TRIZOL as in Example 1 for quantification of microRNA species.
Fluorogenic TAQMAN detector probes specific for miR-132 (Cat# TM457), miR-212 (Cat# TM515), miR-375 (Cat#TM564), and miR-217 (Cat#1133) were purchased from Applied Biosystems (Foster City, Calif.). The TAQMAN RT-PCR reactions were performed according to the manufacturer's instructions.
Relative miRNA levels for the miRNAs of interest were determined by real-time reverse transcription reaction using the ABI PRISM 7900 Sequence Detection System from Applied Biosystems (Foster City, Calif.) according to the manufacturer's protocol. Briefly, 10 ng of total RNA was mixed with 1 U MultiScribe Reverse Transcriptase, 0.25 U RNase Inhibitor, 3 μL hairpin-looped miRNA-specific RT primer, 1 mM dNTPs and 1× Reverse Transcription Buffer in a total volume of 15 μL. The mixture was incubated at 16° C. for 30 minutes, 42° C. for another 30 minutes, and the reaction was stopped by heating to 85° C. for 5 minutes. Real time PCR reaction was set up in 20 μL volume with 1.33 μL first strand cDNA, 1× TAQMAN MicroRNA Assay Mix and 1× TAQMAN Universal PCR Master Mix. After activation of the AMPLITAQ Gold DNA polymerase at 95° C. for 10 minutes, 40 cycles of two-step PCR were run (95° C. for 15 seconds and 60° C. for 60 seconds). Data were collected and analyzed with SDS v.2.2.2 software (Applied Biosystems). 4.5S RNA or U6 probe (Applied Biosystems) was used as a reference to determine the relative abundance of each miRNA in different samples. TAQMAN RT-PCR was performed according the manufacturer's instructions.
The absolute miRNA levels were determined by reverse transcription reactions in GeneAmp PCR system 9700 followed by amplification using the ABI PRISM 7900HT Sequence Detection System from Applied Biosystems (Foster City, Calif.) through 40 cycles. 4.5S RNA (H) probe (Cat#TM1716) or U6 (Cat#TM1973) was used as reference to determine the relative abundance of each miRNA in different samples. The induction of miR-132 and miR-212 expression by GLP-1 started around 4 hour post-GLP-1 treatment, peaked at 24 hours and was sustained up to 48 hours (FIG. 2).
On the technique in general: Real-time PCR tracks product formation cycle by cycle.

In data set [2] the test system is INS-1 832/13 cells. In words: LANCE cAMP assay in INS-1 832/13 cells. To be noted: for cAMP levels: cells overexpressing the precursor vs scramble control. From the text:
(§1) We overexpressed the precursors of miR-132 and miR-212 to evaluate their possible contribution to β-cell function. MicroRNA miR-375 was included as a control as it been reported to have an inhibitory effect on GDIS (Poy et al., Nature 432: 226-230 (2004)). Chemically modified Pre-miR™ miRNA precursor molecules and Anti-miR™ miRNA inhibitors were purchased from Ambion (Foster City, Calif.). miRCURY LNA™ microRNA knockdown oligonucleotides were purchased from Exiqon (Woburn, Mass.). The oligonucleotide molecules were delivered to the cells by the Nucleofector Device (Amaxa, Gaithersburg, Md.). In brief, INS-1 cells were trypsinized, centrifuged, and resuspended in 100 μl Nucleofector solution V. Then 100-500 pmole RNA oligonucleotides were transfected to 3-million cells at the concentration of 1-5 μM with the Amaxa Nucleofector Device. Scramble controls from the vendors were used with the same transfection method. After electroporation, the cells were transferred to regular culture medium and then split into replicates in 96-well plates. Insulin secretion assay or LANCE cAMP assay were performed 48 hours post electroporation.
(§2) For the Lance cAMP assay, INS1 832/3 and 832/13 cells were grown to near confluency in flasks. 9000 cells were incubated with GLP-1 or Exendin-4 in stimulation buffer at concentrations as indicated in figure legends for 1 hour at 37° C. cAMP levels were measured using LANCE cAMP assay kit in 384-well format according to manufacture's protocol (Perkin Elmer, Waltham, Mass.). Counts were calculated to cAMP concentrations using a cAMP standard curve. Each condition was measured in quadruplicate.
(In TR-FRET formats the signal depends on donor and acceptor labels being close together.)

Data set [3] has as its system INS-1 832/3 cells. In words: glucose dependent insulin secretion (GDIS) assay in INS-1 832/3 cells. The conditions noted are these: for basal insulin secretion at low glucose: 2 mM glucose; for basal insulin secretion at low glucose / insulin release stimulated by KCl / insulin release as percentage of insulin secretion of intracellular insulin content / glucose-dependent insulin secretion (GDIS): 48 hours post-transfection; for GLP-1 potentiation of GDIS: 16 mM glucose + 10 nM GLP-1, 48 hour post transfection; for GLP-1 potentiation of GDIS / glucose-dependent insulin secretion (GDIS): vs scramble control; for insulin release stimulated by KCl: 30 mM KCl; for glucose-dependent insulin secretion (GDIS): two hour incubation in KRB; for insulin content: cell lysates, normalized to total protein.
Description: as §1
(§3) INS-1 cell glucose dependent insulin secretion (GDIS) assay was performed as follows. The GDIS assay was performed with cells grown to near confluency in 96-well plates. Prior to the assay, cells were washed once with PBS and pre-incubated for two hours in freshly prepared Krebs-Ringer Bicarbonate (KRB) medium without glucose. The medium were then replaced with KRB with 2, 8 or 16 mM glucose or along with 10 nM GLP-1. The cells were incubated for another two hours in a CO2 incubator. The media was then removed at the end of incubation, and assayed for insulin levels by Ultra-sensitive Rat Insulin ELISA kit (ALPCO, Salem, N.H.) or insulin immunoassay by Gyrolab workstation (GYROS AB, Uppsala, Sweden). Intracellular insulin was extracted by acid ethanol method for measuring intracellular insulin content. Total protein was measured by Pierce 660 nm Protein Assay from Pierce Biotechnology, Inc. (Rockford, Ill.).

For data set [4], the system named is INS-1 832/13 cells. In words: glucose dependent insulin secretion (GDIS) assay in INS-1 832/13 cells. The conditions noted are these: transfected cells vs scramble control.
Description: as §1, §3

Data set [5] has as its system INS-1 832/3 cells. In words: TAQMAN quantification of insulin (Ins1) transcripts in INS-1 832/3 cells. To be noted: normalized to β-actin.
Description: as §1
We further measured the insulin content and found it was unchanged by miR-132 or miR-212 overexpression (FIG. 7B). […] Furthermore, we measured insulin transcripts by TAQMAN analysis in cells over-expressing these microRNA molecules. Ins1 TAQMAN probe from Applied Biosystems (Foster City, Calif.) was used to measure insulin transcript levels and normalized to β-actin. […] In this series of experiments, miR-132, miR-212 and miR-375 transcripts were increased by about 1000-fold, 2000-fold, and 8-fold, respectively, as assayed by TAQMAN real-time quantitative RT-PCR.

The subject of data set [6] is INS-1 832/3 cells. In words: LANCE cAMP assay in INS-1 832/3 cells. To be noted: one hour stimulation, 5.5 mM glucose. Here is the method:
as §2

[7] abbreviates: 50 nM GLP-1, 50 nM Exendin-4, 5 μM IBMX, 1 μM Foskolin (FIG. 6A).

“miR-212: chemically modified Pre-miR miRNA precursor molecule (Ambion) transfected to overexpress miR-212 (guide UAACAGUCUCCAGUCACGGCC; chemically modified Pre-miR precursor, pattern not given here)”: the “increase of the corresponding miRNA transcripts after transfection of precursor” value (from here on “increase”) in the data set on INS-1 832/3 cells [1] is about 2000 fold. In the data set on INS-1 832/13 cells [2], the cAMP levels result is given as “no changes”. Further, in the data set with INS-1 832/3 cells [3], the “basal insulin secretion at low glucose” value is reported as “unchanged”, the “GLP-1 potentiation of GDIS” value is recorded as “enhanced”, the “insulin release stimulated by KCl” value is “significantly enhanced” and the “insulin release as percentage of insulin secretion of intracellular insulin content” value (shortened to “insulin release as percentage”) was “significantly increased”. In the data set on INS-1 832/3 cells [3], the “glucose-dependent insulin secretion (GDIS)” value is reported as “significantly enhanced” and the insulin content result is reported as “unchanged”. For the same substance, in the data set with INS-1 832/13 cells [4], the “effect of GLP-1 (GLP-1 potentiation)” value was “augmented” and the “insulin secretion (GDIS)” value is listed as “significantly increased”. Besides, in the data set on INS-1 832/3 cells [5], the “insulin (Ins1) transcripts” value is recorded as “no effect”.

With “miR-132: chemically modified Pre-miR miRNA precursor molecule (Ambion) transfected to overexpress miR-132 (guide UAACAGUCUACAGCCAUGGUCG; chemically modified Pre-miR precursor, pattern not given here)”, in the data set on INS-1 832/3 cells [1], the “increase” value is “about 1000 fold”. In the data set with INS-1 832/13 cells [2], the cAMP levels entry is on record as “no changes”. Besides, in the data set with INS-1 832/3 cells [3], the “basal insulin secretion at low glucose” value is “unchanged”, the “GLP-1 potentiation of GDIS” value is “robustly increased”, the “insulin release stimulated by KCl” value is given as “significantly enhanced” and the “insulin release as percentage” value is reported as “significantly increased”. Further, in the data set with INS-1 832/3 cells [3], the “glucose-dependent insulin secretion (GDIS)” value is reported as “significantly enhanced” and the insulin content entry was “unchanged”. In addition, in the data set with INS-1 832/13 cells [4], the “effect of GLP-1 (GLP-1 potentiation)” value is reported as “augmented” and the “insulin secretion (GDIS)” value is reported as “significantly increased”. In the data set with INS-1 832/3 cells [5], the “insulin (Ins1) transcripts” value is “no effect”.

For “Exendin-4: GLP-1 analog, cAMP raising agent”, in the data set on INS-1 832/3 cells [1] (setting [7]), the miR-132 expression result was “significantly increased”, the miR-212 expression result is on record as “significantly increased” and the miR-375 expression entry was “remained unchanged”. In addition, the cAMP accumulation entry in the data set on INS-1 832/3 cells [6] is on record as “dose-dependent accumulation”. Besides, the cAMP accumulation entry with INS-1 832/13 cells [2] (one hour stimulation, 5.5 mM glucose) is listed as “loss of such response”.

Take “miR-375: chemically modified Pre-miR miRNA precursor molecule (Ambion) transfected to overexpress miR-375, control (guide UUUGUUCGUUCGGCUCGCGUGA; chemically modified Pre-miR precursor, pattern not given here)”: the “increase” value with INS-1 832/3 cells [1] is given as about 8 fold. Further, in the data set with INS-1 832/3 cells [3], the “GLP-1 potentiation of GDIS” value was “not”, the “insulin release as percentage” value was “decreased”, the “glucose-dependent insulin secretion (GDIS)” value is given as “significantly suppressed” and the insulin content entry was “reduction”. The “insulin (Ins1) transcripts” value with INS-1 832/3 cells [5] was “moderately down-regulated”.
